Measured values reported in US20090203577A1 (EXELIXIS, INC., priority 2005, published 2009).
Read-outs that look alike come from different tables or passages of the source.

Target: T1, human farnesoid X receptor (Homo sapiens, UniProt Q96RI1)
T1 construct: CMX-farnesoid X receptor (full length human farnesoid X receptor); expressed in transfected cells; host or cells: CV-1 African Green Monkey Kidney cells
T1 sequence (Q96RI1 1-472 isoform Q96RI1-2): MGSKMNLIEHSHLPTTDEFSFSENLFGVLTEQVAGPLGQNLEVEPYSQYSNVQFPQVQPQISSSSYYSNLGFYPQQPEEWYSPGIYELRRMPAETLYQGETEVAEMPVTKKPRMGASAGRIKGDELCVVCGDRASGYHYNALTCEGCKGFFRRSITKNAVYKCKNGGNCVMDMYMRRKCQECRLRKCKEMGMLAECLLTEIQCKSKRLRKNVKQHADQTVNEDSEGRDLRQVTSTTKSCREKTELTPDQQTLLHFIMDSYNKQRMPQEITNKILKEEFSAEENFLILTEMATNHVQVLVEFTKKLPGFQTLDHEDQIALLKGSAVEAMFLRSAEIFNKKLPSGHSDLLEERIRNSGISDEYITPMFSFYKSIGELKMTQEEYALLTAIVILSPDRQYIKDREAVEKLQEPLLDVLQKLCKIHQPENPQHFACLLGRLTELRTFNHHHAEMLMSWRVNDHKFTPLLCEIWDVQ
T1 sequence (P19793 1-462 partner): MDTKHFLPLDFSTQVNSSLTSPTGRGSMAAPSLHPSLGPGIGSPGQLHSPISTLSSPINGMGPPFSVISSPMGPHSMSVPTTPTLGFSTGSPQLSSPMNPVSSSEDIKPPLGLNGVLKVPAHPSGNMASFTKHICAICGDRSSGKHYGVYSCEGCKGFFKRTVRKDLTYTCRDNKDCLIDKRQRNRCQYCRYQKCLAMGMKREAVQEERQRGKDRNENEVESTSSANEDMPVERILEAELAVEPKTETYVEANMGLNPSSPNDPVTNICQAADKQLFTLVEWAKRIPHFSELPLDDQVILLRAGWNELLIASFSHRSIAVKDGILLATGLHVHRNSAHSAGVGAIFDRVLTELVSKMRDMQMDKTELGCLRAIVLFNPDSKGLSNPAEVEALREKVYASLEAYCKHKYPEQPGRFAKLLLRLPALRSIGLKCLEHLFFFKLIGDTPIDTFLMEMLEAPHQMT
Experiment: FXR in vitro assays (farnesoid X receptor/ECREx7 co-transfection assay, TR-FRET assay), Table I
Format: cell-based
Conditions: for Emax: read-out: % Efficacy
Experimental: The basic co-transfection protocol for measuring the farnesoid X receptor activity is as follows. CV-1 African Green Monkey Kidney cells were plated 24 hours before transfection to achieve approximately 70-80 percent confluency. […] The assay was allowed to continue for an additional 18-20 hours, after which the cells were lysed, with lysis buffer (1% triton X 100, 10% glycerol, 5 mM Dithiothreitol, 1 mM EGTA, 25 mM Tricine, pH 7.8) and the luciferase activity measured in the presence of Luciferase assay buffer (0.73 mM ATP, 22.3 mm Tricine, 0.11 mM EGTA, 0.55 mM Luciferin, 0.15 mM Coenzyme A, 0.5 mM HEPES, 10 mM Magnesium sulphatc) on a standard luminometer plate reader (PE Biosystems, NorthStar Reader), using recommended operating instructions and conditions.
The dose response curves are generated from an 8 point curve with concentrations differing by ½ LOG units. Each point represents the average of 4 wells of data from a 384 well plate. A curve for the data is generated by using the equation:
Y=Bottom+(Top−Bottom)/(1+10̂((Log EC50−X)*HillSlope))
The EC50/IC50 is therefore defined as the concentration at which an agonist or antagonist elicits a response that is half way between the Top (maximum) and Bottom (baseline) values. The EC50/IC50 values represented are the averages of at least 3 independent experiments.

[1] = agonist activity, one or more of the in vitro assays, read-out: EC50

Row | Compound | EC50 [1] | Emax | EC50
1 | CC(C)OC(=O)C1=CN(C(=O)c2ccc(CN(C)C)cc2)CC(C)(C)c2c1[nH]c1ccccc21 [Example 107, 1-methylethyl 3-({4-[(dimethylamino)methyl]phenyl}carbonyl)-1,1-dimethyl-1,2,3,6-tetrahydroazepino[4,5-b]indole-5-carboxylate] | 1 to 10 µM | > 100% | 
2 | CC(C)OC(=O)C1=CN(C(=O)c2cccc(CN(C)C)c2)CC(C)(C)c2c1[nH]c1ccccc21 [Example 108, 1-methylethyl 3-({3-[(dimethylamino)methyl]phenyl}-carbonyl)-1,1-dimethyl-1,2,3,6-tetrahydroazepino[4,5-b]indole-5-carboxylate] | 0.1 to 1 µM | > 100% | 
3 | Cc1cc(C(=O)N2C=C(C(=O)OC(C)C)c3[nH]c4ccccc4c3C(C)(C)C2)no1 [Example 109, 1-methylethyl 1,1-dimethyl-3-[(5-methylisoxazol-3-yl)carbonyl]-1,2,3,6-tetrahydroazepino[4,5-b]indole-5-carboxylate] | 0.1 to 1 µM | > 100% | 
4 | CC(C)OC(=O)C1=CN(C(=O)c2ccc(F)cc2C(F)(F)F)CC(C)(C)c2c1[nH]c1ccccc21 [Example 110, 1-methylethyl 3-{[4-fluoro-2-(trifluoromethyl)phenyl]car-bonyl}-1,1-dimethyl-1,2,3,6-tetrahydroazepino[4,5-b]indole-5-carboxylate] | 0.01 to 0.1 µM | > 100% | 
5 | CC(C)OC(=O)C1=CN(C(=O)c2ccc(F)cc2Cl)CC(C)(C)c2c1[nH]c1ccccc21 [Example 111, 1-methylethyl 3-[(2-chloro-4-fluorophenyl)carbonyl]-1,1-dimethyl-1,2,3,6-tetrahydroazepino[4,5-b]indole-5-carboxylate] | 0.01 to 0.1 µM | > 100% | 
6 | CCN(CC)CCCNC(=O)Oc1ccc2c3c([nH]c2c1)C(C(=O)OC(C)C)=CN(C(=O)c1ccc(F)c(F)c1)CC3(C)C [Example 112, 1-methylethyl 8-[({[3-(diethylamino)propyl]amino}carbonyl)oxy]-3-[(3,4-difluorophenyl)carbonyl]-1,1-dimethyl-1,2,3,6-tetrahydroazepino[4,5-b]indole-5-carboxylate] |  | > 100% | 1 to 10 µM
7 | CC(C)OC(=O)C1=CN(C(=O)c2cccc(CCl)c2)CC(C)(C)c2c1[nH]c1ccccc21 [Example 113, 1-methylethyl 3-{[3-(chloromethyl)phenyl]car-bonyl}-1,1-dimethyl-1,2,3,6-tetrahydroazepino[4,5-b]indole-5-carboxylate] | 0.01 to 0.1 µM | > 100% | 
8 | CCN(CC)Cc1cccc(C(=O)N2C=C(C(=O)OC(C)C)c3[nH]c4ccccc4c3C(C)(C)C2)c1 [Example 114, 1-methylethyl 3-({3-[(diethylamino)methyl]phenyl}carbonyl)-1,1-dimethyl-1,2,3,6-tetrahydroazepino[4,5-b]indole-5-carboxylate] | 0.1 to 1 µM | > 100% | 
9 | CC(C)OC(=O)C1=CN(C(=O)c2ccc(F)c(F)c2)CC(C)(C)c2c1[nH]c1ccc(OCc3ccccc3)cc21 [Example 115, 1-methylethyl 3-[(3,4-difluorophenyl)carbonyl]-1,1-dimethyl-9-[(phenylmethyl)oxy]-1,2,3,6-tetrahydroazepino[4,5-b]indole-5-carboxylate] | 0.01 to 0.1 µM | > 100% | 
10 | CC(C)OC(=O)C1=CN(C(=O)c2cccc(CN3CCCC3)c2)CC(C)(C)c2c1[nH]c1ccccc21 [Example 117, 1-methylethyl 1,1-dimethyl-3-{[3-(pyrrolidin-1-ylmethyl)phenyl]carbonyl}-1,2,3,6-tetrahydroazepino[4,5-b]indole-5-carboxylate] |  | > 100% | 
11 | CCN1CCN(Cc2cccc(C(=O)N3C=C(C(=O)OC(C)C)c4[nH]c5ccccc5c4C(C)(C)C3)c2)CC1 [Example 120, 1-methylethyl 3-({3-[(4-ethylpiperazin-1-yl)methyl]phenyl}carbonyl)-1,1-dimethyl-1,2,3,6-tetrahydroazepino[4,5-b]indole-5-carboxylate] | 0.1 to 1 µM | > 100% | 
12 | CC1(C)CN(C(=O)c2ccc(F)c(F)c2)C=C(C(=O)CCl)c2[nH]c3ccccc3c21 [Example 121, 2-chloro-1-{3-[(3,4-difluorophenyl)carbonyl]-1,1-dimethyl-1,2,3,6-tetrahydroazepino[4,5-b]indol-5-yl}ethanone] | 0.1 to 1 µM | < 40% | 
13 | CC1(C)OCC(COC(=O)C2=CN(C(=O)c3ccc(F)c(F)c3)CC(C)(C)c3c2[nH]c2ccccc32)O1 (stereo not shown) [Example 122, (2,2-dimethyl-1,3-dioxolan-4-yl)methyl 3-[(3,4-difluorophenyl)carbonyl]-1,1-dimethyl-1,2,3,6-tetrahydroazepino[4,5-b]indole-5-carboxylate] | 0.1 to 1 µM | > 100% | 
14 | COC(=O)C1=CN(C(=O)c2ccc(F)c(F)c2)CC(C)(C)c2c1[nH]c1ccccc21 [Example 123, methyl 3-[(3,4-difluorophenyl)carbonyl]-1,1-dimethyl-1,2,3,6-tetrahydroazepino[4,5-b]indole-5-carboxylate] | 0.1 to 1 µM | > 100% | 
15 | CC1(C)CN(C(=O)c2ccc(F)c(F)c2)C=C(C(=O)OCC(O)CO)c2[nH]c3ccccc3c21 (stereo not shown) [Example 124, 2,3-dihydroxypropyl 3-[(3,4-difluorophenyl)carbonyl]-1,1-dimethyl-1,2,3,6-tetrahydroazepino[4,5-b]indole-5-carboxylate] | 0.01 to 0.1 µM | > 100% | 
16 | CC(C)OC(=O)C1=CN(C(=O)c2cccc(CN3CCOCC3)c2)CC(C)(C)c2c1[nH]c1ccccc21 [Example 125, 1-methylethyl 1,1-dimethyl-3-{[3-(morpholin-4-ylmethyl)phenyl]carbonyl}-1,2,3,6-tetrahydroazepino[4,5-b]indole-5-carboxylate] |  | > 100% | 
17 | CC(C)OC(=O)C1=CN(C(=O)c2ccc(F)c(F)c2)CC(C)(C)c2c1[nH]c1cc(OC(=O)NCCN3CCCC3)ccc21 [Example 126, 1-methylethyl 3-[(3,4-difluorophenyl)carbonyl]-1,1-dimethyl-8-({[(2-pyrrolidin-1-ylethyl)amino]carbonyl}oxy)-1,2,3,6-tetrahydroazepino[4,5-b]indole-5-carboxylate] |  | > 100% | 0.01 to 0.1 µM
18 | CC(C)OC(=O)C1=CN(C(=O)c2cccc(C(F)(F)F)c2)CC(C)(C)c2c1[nH]c1ccccc21 [Example 128, 1-methylethyl 1,1-dimethyl-3-{[3-(trifluoromethyl)phenyl]car-bonyl}-1,2,3,6-tetrahydroazepino[4,5-b]indole-carboxylate] | 0.01 to 0.1 µM | > 100% | 
19 | CC1(C)CN(C(=O)c2ccc(F)c(F)c2)C=C(C(=O)OC[C@H](O)CO)c2[nH]c3ccccc3c21 [Example 129, (2R)-2,3-dihydroxypropyl 3-[(3,4-difluorophenyl)carbonyl]-1,1-dimethyl-1,2,3,6-tetrahydroazepino[4,5-b]indole-5-carboxylate] | 0.1 to 1 µM | > 100% | 
20 | CC(C)OC(=O)C1=CN(C(=O)c2cccc(C(F)(F)F)c2F)CC(C)(C)c2c1[nH]c1ccccc21 [Example 133, 1-methylethyl 3-{[2-fluoro-3-(trifluoromethyl)phenyl]car-bonyl}-1,1-dimethyl-1,2,3,6-tetrahydroazepino[4,5-b]indole-5-carboxylate] | 0.01 to 0.1 µM | > 100% | 
21 | CC1(C)CN(C(=O)c2ccc(F)c(F)c2)C=C(C(=O)OC(CF)CF)c2[nH]c3ccccc3c21 [Example 136, 2-fluoro-1-(fluoromethyl)ethyl 3-[(3,4-difluorophenyl)carbonyl]-1,1-dimethyl-1,2,3,6-tetrahydroazepino[4,5-b]indole-5-carboxylate] | 0.001 to 0.01 µM | > 100% | 
